Data published in patent US5001141A, “N-(2-(2-oxo-1-imidazolidinyl)ethyl)-3-phenyl-urea and analogs as agents for induction of antioxidant enzymes” (E. I. Du Pont de Nemours and Company, priority 1989, dated 1991).

What was measured:
[1] = system: glutathione peroxidase (GSH-PX); test: Glutathione peroxidase activity in Gin-1 human gingival fibroblasts; format: cell-based; settings: Gin-1 cells
Method: (§1) 1. In vitro Administration of compounds of Examples 1 or 2 (Compound 1 and Compound 2, respectively).
(§2) Two different cell types, human gingival fibroblasts (Gin-1) and bovine aortic endothelial cells (CPA ATCl CCL207) were obtained from the American Type Culture Collection. They were incubated until confluent in Dulbecco's modified Eagles medium, supplemented with 2 mM glutamine and 10% heat-inactivated fetal calf serum at 37° C. in a humidified chamber with 5% CO2 in air. Compounds were dissolved in DMSO, diluted to 100 mM with distilled deionized H2 O, and further diluted with Dulbecco's medium (without fetal bovine serum), to desired concentrations. The usual time of incubation with the compounds of this invention was 24 hr at 37° C. in a humidified incubator with 5% CO2 in air. Lactic dehydrogenase (LDH) release was determined in several in vitro preparations as an index of cytotoxicity. using Sigma Diagnostic Kit #500. LDH release was expressed as a percentage of total LDH activity released from cells treated with 0.4% Triton X [Cabaud, P. G., Wroblewski, F. Am. J. Clin. Pathol. 30:234-236, (1958)].
(§3) Prior to the enzymatic assays the Gin-1 cells and aortic endothelial cells were prepared as follows: cells were rinsed several times with phosphate buffered saline without Ca^+2 or Mg^+2, removed from the culture flasks with 0.25% trypsin, counted using a hemocytometer, and resuspended at 2-3×10^6 cells/ml in Dulbecco's medium without fetal calf serum. Cells were then disrupted by pulse sonication and centrifuged at 100,000 xg at 4° C. Total protein [Bradford, M. M., Anal. Biochem 72:248-254, (1976)] and enzyme activities were determined on the cell sonicates, using standard techniques, SOD activity was determined using the method of McCord and Fridovich [McCord, J., Fridovich I., J. Biol. Chem. 244:6049-6055, (1969)]. Catalase activity was measured using the method of Beers and Sizer [Beers, R. F., Sizer, I. W., J. Biol. Chem. 195:133-146, (1952)]. Glutathione peroxidase activity was determined by the method of Guenzler et al. [Guenzler, W. A., Kremers, H., Flohe, L., Z. Klin. Chem. Klin. Biochem. 12:444-448 (1974)].
(§4) All enzyme activities were expressed as units of activity per mg protein. The data were compared by Student's t test [Snedecor, W. G., Statistical Methods, p. 45, (1964)]. The level of significance was taken as p<0.05.

catalase (CAT) [2] = test: Catalase activity in Gin-1 human gingival fibroblasts; format: cell-based; settings: Gin-1 cells; for CAT % Increase: vs untreated
Method: as §1, §2, §3, §4

[3] = system: superoxide dismutase (SOD); test: SOD activity in Gin-1 human gingival fibroblasts; format: cell-based; settings: Gin-1 cells; for SOD % Increase: vs untreated
Method: as §1, §2, §3, §4

[4] = system: superoxide dismutase (SOD) and catalase (CAT); test: Induction of antioxidant enzymes SOD and CAT in mammalian cells and in organs of rats; settings: Gin-1 cells, 1.0 mM, 24 hours; either SOD or CAT, or both enzymes
Method: as §1, §2
as §3, with “Cells were then disrupted by pulse sonication and centrifuged at 100,000 xg at 4° C.” left out, “Chem. Klin. Biochem. 12:444-448 (1974)].” left out
All enzyme activities were expressed as units of activity per mg protein. […]

[5] = system: polymorphonuclear leukocyte infiltration into ozone-exposed rat lungs; settings: Bassett et al. 1988; cited from earlier work
[6] = system: superoxide dismutase (SOD); test: SOD activity in bovine aortic endothelial cells; format: cell-based; settings: for SOD activity: n = 10, mean ± SEM, * P < 0.05 vs 0 mM
Method: as §1, §2, §3, §4

catalase (CAT) [7] = test: Catalase activity in bovine aortic endothelial cells; format: cell-based; settings: for CAT activity: n = 6, mean ± SEM
Method: as §1, §2, §3, §4

[8] = LDH release from Gin-1 cells as index of cytotoxicity; format: cell-based, human; settings: human, % of total LDH released by 0.4% Triton X, mean ± SEM
Method: as §2

Gin-1 cells = test: as above; format: cell-based, human
Method: as §2

[9] = system: superoxide dismutase (SOD); test: SOD activity in rat heart, liver and lung after in vivo treatment
Method: Male Lewis rats (250 g) were injected with 0.9% saline (controls) or Compound 1 (100 mg/kg) intraperitoneally twice a day for two days. Heart, liver and lungs were removed en bloc, dissected free of extraneous tissue, and blotted dry to remove contaminating blood. A portion of each tissue (approximately 0.5 g) was homogenized, and centrifuged at 500 xg for 10 minutes at 4° C. A 2 ml aliquot of supernatant was removed and centrifuged at 25,000 xg for 30 minutes. The supernatants were then decanted, and analyzed for SOD and CAT activities and total protein as described above.
as §4

[10] = system: glutathione peroxidase (GSH-PX); test: Glutathione peroxidase activity in bovine aortic endothelial cells; format: cell-based; settings: for GSH-PX activity: n = 6, mean ± SEM
Method: as §1, §2, §3, §4

[11] = Compound 2, at one or more concentrations

## O=C(NCCN1CCNC1=O)Nc1ccc(F)cc1 [Compound 2, 1-[2-(2-oxo-1-imidazolidinyl)ethyl]-3-(4-fluorophenyl)urea]
[1]
  GSH-PX activity (in words): remained constant
[1]; Compound 2 table, 0.25 mM, n = 6, mean ± SEM
  GSH-PX activity: 35.0 ± 1.4 U/mg Protein
[1]; Compound 2 table, 0.50 mM, n = 6, mean ± SEM
  GSH-PX activity: 40.0 ± 4.7 U/mg Protein
[1]; Compound 2 table, 1.0 mM, n = 6, mean ± SEM
  GSH-PX activity: 39.1 ± 4 U/mg Protein
Catalase (CAT) [2]; 0.25 mM, n=6, mean ± SEM
  CAT activity: 8.3 ± 0.8 U/mg Protein
Catalase (CAT) [2]; 0.50 mM, n = 6, mean ± SEM, * P < 0.05 vs 0 mM
  CAT activity: 11.4 ± 1.8 U/mg Protein
Catalase (CAT) [2]; 1.0 mM, n=6, mean ± SEM
  CAT activity: 9.5 ± 1.4 U/mg Protein
Catalase (CAT) [2]; [11]
  CAT activity (in words): significantly increased (P<0.05) at one or more concentrations
[3]; 0.25 mM, n = 8, mean ± SEM, * P < 0.05 vs 0 mM
  SOD activity: 15.2 ± 1.6 U/mg Protein
[3]; 0.50 mM, n = 8, mean ± SEM, * P < 0.05 vs 0 mM
  SOD activity: 15.9 ± 1.7 U/mg Protein
[3]; 1.0 mM, n = 8, mean ± SEM, * P < 0.05 vs 0 mM
  SOD activity: 14.5 ± 2.2 U/mg Protein
[3]; [11]
  SOD activity (in words): significantly increased (P<0.05) at one or more concentrations

## O=C(NCCN1CCNC1=S)Nc1ccccc1 [Example 11]
[4]
  SOD and/or CAT activity (in words): increased
Catalase (CAT) [2]; 1.0 mM, 24 hours
  Effect on CAT activity, ranking among Ex. 7, 11, 12 (in words): affected CAT the most
  CAT % Increase: 118%
Catalase (CAT) [2]; 1.0 mM, 24 hours, Table 5
  CAT activity: 4.1 ± 1.6 U/mg Protein
[3]; 1.0 mM, 24 hours
  Effect on SOD activity, ranking among Ex. 7, 11, 12 (in words): least effect on SOD activity
  SOD % Increase: 3%
[3]; 1.0 mM, 24 hours, Table 5
  SOD activity: 4.0 ± 0.8 U/mg Protein

## O=C(NCCN1CCNC1=O)Nc1ccc(Cl)cc1 [Example 7]
[4]
  SOD and/or CAT activity (in words): increased
Catalase (CAT) [2]; 1.0 mM, 24 hours, Table 5
  CAT activity: 3.6 ± 0.9 U/mg Protein
Catalase (CAT) [2]; 1.0 mM, 24 hours
  CAT % Increase: 95%
[3]; 1.0 mM, 24 hours, Table 5
  SOD activity: 5.8 ± 1.2 U/mg Protein
[3]; 1.0 mM, 24 hours
  SOD % Increase: 51%

## O=C(NCCN1CCNC1=O)Nc1ccccc1 [Compound 1, 1-[2-(2-oxo-1-imidazolidinyl)ethyl]-3-phenylurea]
[5]
  Polymorphonuclear leukocyte infiltration into ozone-exposed rat lungs: decreased polymorphonuclear leukocyte infiltration
[6]; 0.05 mM (so in the source)
  SOD activity: 9.5 ± 1.8 U/mg Protein
[6]; 0.25 mM
  SOD activity: 6.7 ± 0.8 U/mg Protein
[6]; 1.0 mM
  SOD activity: 12.2 ± 3.4 U/mg Protein
[6]; concentration-dependent
  SOD activity (in words): significantly increased (P<0.05) in a concentration-dependent manner
Catalase (CAT) [7]; 0.05 mM (so in the source)
  CAT activity: 27.1 ± 3.3 U/mg Protein
Catalase (CAT) [7]; 0.25 mM
  CAT activity: 25.7 ± 3.6 U/mg Protein
Catalase (CAT) [7]; 1.0 mM, * P < 0.05 vs 0 mM
  CAT activity: 31.9 ± 2.4 U/mg Protein
Catalase (CAT) [7]; highest concentration (1 mM) only
  Catalase activity (in words): significantly increased at the highest concentration (1 mM) only
[8]; 0.125 mM
  cytotoxicity at 24 h, 125 µM: 7 ± 2%
[8]; 1.0 mM
  cytotoxicity at 24 h, 1000 µM: 8 ± 2%
Gin-1 cells
  Cytotoxicity as shown by LDH release (in words): no indication of cytotoxicity
[9]; rat heart, 100 mg/kg i.p. 2 × /day for 2 days, (8), mean ± SEM, * P < 0.05 vs saline control
  Tissue SOD Activity, Heart: 194 ± 14 U/mg Protein
[9]; rat heart, liver, lung, compared with controls
  SOD activity in all three tissues (in words): induced SOD activity in all three tissues studied
[9]; rat liver, 100 mg/kg i.p. 2 × /day for 2 days, (8), mean ± SEM, * P < 0.05 vs saline control
  Tissue SOD Activity, Liver: 444 ± 68 U/mg Protein
[9]; rat lung, 100 mg/kg i.p. 2 × /day for 2 days, (8), mean ± SEM, * P < 0.05 vs saline control
  Tissue SOD Activity, Lung: 134 ± 7 U/mg Protein
[1]
  GSH-PX activity (in words): remained constant
[1]; 0.125 mM, n=6, mean ± SEM
  GSH-PX activity: 52.1 ± 4.7 U/mg Protein
[1]; 0.25 mM, n=6, mean ± SEM
  GSH-PX activity: 45.8 ± 3.5 U/mg Protein
[1]; 1.0 mM, n=6, mean ± SEM
  GSH-PX activity: 45.1 ± 5.3 U/mg Protein
[1]; 2.0 mM, n=6, mean ± SEM
  GSH-PX activity: 47.8 ± 3.8 U/mg Protein
Catalase (CAT) [2]; 0.125 mM, n=4, mean ± SEM, * P < 0.05 vs 0 mM
  CAT activity: 9.1 ± 1.1 U/mg Protein
Catalase (CAT) [2]; 0.25 mM, n=4, mean ± SEM, * P < 0.05 vs 0 mM
  CAT activity: 10.0 ± 1.8 U/mg Protein
Catalase (CAT) [2]; 1.0 mM, n=4, mean ± SEM, * P < 0.05 vs 0 mM
  CAT activity: 11.2 ± 2.0 U/mg Protein
Catalase (CAT) [2]; 2.0 mM, n=4, mean ± SEM, * P < 0.05 vs 0 mM
  CAT activity: 13.9 ± 1.6 U/mg Protein
Catalase (CAT) [2]; 0.125-2.0 mM Compound 1
  CAT activity compared with controls (in words): significantly increased (P<0.05)
[3]; 0.125 mM, n=7, mean ± SEM, * P < 0.05 vs 0 mM
  SOD activity: 13.1 ± 1.5 U/mg Protein
[3]; 0.25 mM, n=7, mean ± SEM, * P < 0.05 vs 0 mM
  SOD activity: 20.7 ± 3.3 U/mg Protein
[3]; 1.0 mM, n=7, mean ± SEM, * P < 0.05 vs 0 mM
  SOD activity: 11.6 ± 1.4 U/mg Protein
[3]; 2.0 mM, n=7, mean ± SEM, * P < 0.05 vs 0 mM
  SOD activity: 13.5 ± 1.7 U/mg Protein
[3]; 0.125-2.0 mM Compound 1
  SOD activity compared with controls (in words): significantly increased (P<0.05)
[10]
  GSH-PX activity (in words): not significantly different
[10]; 0.05 mM (so in the source)
  GSH-PX activity: 33.5 ± 3.2 U/mg Protein
[10]; 0.25 mM
  GSH-PX activity: 28.1 ± 5.7 U/mg Protein
[10]; 1.0 mM
  GSH-PX activity: 59.8 ± 17 U/mg Protein

## O=C(Nc1ccccc1)NN1CCCOC1=O [Example 12]
[4]
  SOD and/or CAT activity (in words): increased
Catalase (CAT) [2]; 1.0 mM, 24 hours
  Effect on CAT activity, ranking among Ex. 7, 11, 12 (in words): least effect on CAT
  CAT % Increase: 35%
Catalase (CAT) [2]; 1.0 mM, 24 hours, Table 5
  CAT activity: 2.5 ± 0.6 U/mg Protein
[3]; 1.0 mM, 24 hours
  Effect on SOD activity, ranking among Ex. 7, 11, 12 (in words): greatest effect on SOD
  SOD % Increase: 69%
[3]; 1.0 mM, 24 hours, Table 5
  SOD activity: 6.5 ± 0.9 U/mg Protein
